Columns and labels:
[1] = PET, rats, 60 min after injection
Description: Emission scans were acquired in three-dimensional list mode with an energy window of 350–650 keV under isoflurane anesthesia, from 0 to 60 min after radioprobe administration. All list-mode acquisition data were sorted into three-dimensional sinograms, which were then Fourier-rebinned into two-dimensional sonograms (frames × min: 4 × 1, 8 × 2, 8 × 5), and corrections for scanner dead time, randoms, and decay of the injected radioprobe. Dynamic images were reconstructed with filtered back-projection using a Hanning filter and a Nyquist cut-off of 0.5 cycles/pixel. Immediately after completion of PET scans, contrast-enhanced CT scans were performed in the rats by using the small-animal CT system (R_mCT2; Rigaku, Tokyo) after injection of 1 mL of non-ionic contrast medium (Iopamiron 370, Bayer, Osaka). The scan conditions included radiation parameters of 200 μA and 90 kV, FOV of 60 mm, and acquisition time of 34 s. CT images were collected, reconstructed, and observed using I-View-R software (Rigaku, The Woodlands, TX). Averaged CT attenuation images and dynamic PET images were reconstructed and fused using the Siemens Inveon Research Workplace (IRW) 4.0 software.
Regions of interest (ROI) in major organs and tissues were drawn in the PET/CT fusion images by manual outlining the organs and tissues in the CT images throughout the image slices by using IRW 4.0 software. The average radioactivity concentration was obtained from mean pixel values in the ROI volume. Regional uptake of radioactivity was decay-corrected to the injection time and expressed as the standardized uptake value (SUV), normalized for injected radioactivity and body weight. SUV was calculated as SUV = (radioactivity per cubic centimeter tissue/injected radioactivity) × body weight in grams. TACs of the radioprobes in individual organ and tissue were determined. Values of area under time-activity curves (AUC2–60 min, SUV × min) were calculated from 2 to 60 min post-injection to minimize the early perfusion effects.

[2] = Ex vivo biodistribution studies; settings: SD rats, mean ± SEM, n = 4
Description: Major organs and tissues (blood, heart, lung, liver, pancreas, spleen, kidney, intestine, muscle, and brain), were promptly excised, harvested, and weighed. Radioactivity was counted using a γ-counter and expressed as a percentage of the injected dose per gram of wet tissue (%ID/g). All radioactivity measurements were corrected for decay.

[3] = design: method as in PMID 17234791; settings: compared with the other isomer; cited from earlier work
[4] = In vitro stability assay in rat plasma; format: in vitro ADME; settings: 37 °C, 90 min incubation, HPLC analysis
Description: To determine the in vitro property of the two newly-developed radioprobes, we performed plasma stability studies by HPLC analysis at 37 °C for 90 min. […] More than 95% of ^11C-L-1Mtrp and ^11C-D-1Mtrp remained intact and no detectable metabolites were found at least 90 min after plasma incubation in vitro.
^11C-L-1MTrp and ^11C-D-1MTrp (70–74 MBq, 0.4−0.6 nmol) was dissolved in 2 mL of freshly isolated rat plasma and incubated at 37 °C for 90 min. After 0, 30, 60 and 90 min, an aliquot of 300 μL incubated mixture was taken, proteins in plasma were precipitated with equal volumes of 1 M HClO4 solution, followed by centrifugation at 15000 rpm for 2 min at 4 °C. The supernatant was collected and analyzed by HPLC (Capcell Pack UG80 column, 4.6 mm i.d. × 250 mm) with […] phosphate buffer/CH3CN (8.5/1.5, v/v) at a flow rate of 1 mL/min.

[5] = Ex vivo metabolite studies; format: in vivo; settings: SD rats; for Ex vivo metabolite analysis, % of tailored L- and D-1MTrp entity in Brain / Ex vivo metabolite analysis, % of tailored L- and D-1MTrp entity in Pancreas / Ex vivo metabolite analysis, % of tailored L- and D-1MTrp entity in Plasma: HPLC, mean ± SEM, n = 4
Description: To validate the derivation of radioactivity into the relevant organs and tissues, we assessed the metabolites of both radiolabelled isomers in the blood, brain, and pancreas of rats. […] Few radioactive metabolites were detected in these three tissues at 15 and 60 min after ^11C-L-1MTrp and ^11C-D-1MTrp injection.
SD rats were injected with ^11C-L-1MTrp or ^11C-D-1MTrp (70–74 MBq, 0.4–0.6 nmol) via a lateral tail vein. The animals were sacrificed by cervical dislocation at 15 and 60 min after the injection. Blood was collected and centrifuged at 15000 rpm for 2 min at 4 °C to separate the plasma. Brain and pancreas were rapidly removed, then homogenized in equal volumes of 1 M HClO4 solution with a Silent Crusher S homogenizer (Heidolph Instruments). Plasma and homogenates of brain and pancreas from rats were deproteinized and then analyzed by HPLC as described in the stability assay in vitro.

Cn1cc(C[C@@H](N)C(=O)O)c2ccccc21 [D-1MTrp, 1-Methyl-D-tryptophan, reference compound]
SUV in the kidney ([1]; mean ± SEM, four rats): 1.79 | Biodistribution, radioactivity in Kidney ([2]; 60 min after injection): 1.16 %ID/g tissue | Antitumor activity in in vivo studies [3]: superior antitumor activity

[11CH3]n1cc(C[C@H](N)C(=O)O)c2ccccc21 [^11C-L-1MTrp, 1-N-^11C-methyl-L-tryptophan]
Fraction remaining intact in rat plasma [4]: More than 95% | SUV in the kidney ([1]; mean ± SEM, four rats): 0.94 ± 0.03 | SUV in the pancreas ([1]; mean ± SEM, four rats): 2.28 ± 0.28 | SUV in the liver, spleen, heart, blood, muscle, lung, brain and intestine ([1]; span over these organs): 0.43 ~ 0.70 | Biodistribution, radioactivity in Blood ([2]; 1 min after injection): 1.34 ± 0.03 %ID/g tissue | Biodistribution, radioactivity in Brain ([2]; 1 min after injection): 0.14 ± 0.00 %ID/g tissue | Biodistribution, radioactivity in Heart ([2]; 1 min after injection): 1.13 ± 0.01 %ID/g tissue | Biodistribution, radioactivity in Intestine ([2]; 1 min after injection): 1.27 ± 0.05 %ID/g tissue | Biodistribution, radioactivity in Kidney ([2]; 1 min after injection): 2.60 ± 0.02 %ID/g tissue | Biodistribution, radioactivity in Liver ([2]; 1 min after injection): 1.51 ± 0.03 %ID/g tissue | Biodistribution, radioactivity in Lung ([2]; 1 min after injection): 0.98 ± 0.02 %ID/g tissue | Biodistribution, radioactivity in Muscle ([2]; 1 min after injection): 0.18 ± 0.02 %ID/g tissue | Biodistribution, radioactivity in Pancreas ([2]; 1 min after injection): 2.95 ± 0.23 %ID/g tissue | Biodistribution, radioactivity in Spleen ([2]; 1 min after injection): 0.98 ± 0.05 %ID/g tissue | Biodistribution, radioactivity in Blood ([2]; 5 min after injection): 0.65 ± 0.01 %ID/g tissue | Biodistribution, radioactivity in Brain ([2]; 5 min after injection): 0.20 ± 0.01 %ID/g tissue | Biodistribution, radioactivity in Heart ([2]; 5 min after injection): 0.64 ± 0.01 %ID/g tissue | Biodistribution, radioactivity in Intestine ([2]; 5 min after injection): 0.68 ± 0.01 %ID/g tissue | Biodistribution, radioactivity in Kidney ([2]; 5 min after injection): 1.64 ± 0.03 %ID/g tissue | Biodistribution, radioactivity in Liver ([2]; 5 min after injection): 0.73 ± 0.01 %ID/g tissue | Biodistribution, radioactivity in Lung ([2]; 5 min after injection): 0.62 ± 0.01 %ID/g tissue | Biodistribution, radioactivity in Muscle ([2]; 5 min after injection): 0.46 ± 0.01 %ID/g tissue | Biodistribution, radioactivity in Spleen ([2]; 5 min after injection): 0.61 ± 0.00 %ID/g tissue | Biodistribution, radioactivity in Blood ([2]; 15 min after injection): 0.54 ± 0.02 %ID/g tissue | Biodistribution, radioactivity in Brain ([2]; 15 min after injection): 0.27 ± 0.02 %ID/g tissue | Biodistribution, radioactivity in Heart ([2]; 15 min after injection): 0.54 ± 0.02 %ID/g tissue | Biodistribution, radioactivity in Intestine ([2]; 15 min after injection): 0.53 ± 0.02 %ID/g tissue | Biodistribution, radioactivity in Kidney ([2]; 15 min after injection): 1.11 ± 0.06 %ID/g tissue | Biodistribution, radioactivity in Liver ([2]; 15 min after injection): 0.61 ± 0.03 %ID/g tissue | Biodistribution, radioactivity in Lung ([2]; 15 min after injection): 0.50 ± 0.02 %ID/g tissue | Biodistribution, radioactivity in Muscle ([2]; 15 min after injection): 0.46 ± 0.02 %ID/g tissue | Biodistribution, radioactivity in Pancreas ([2]; 15 min after injection): 2.65 ± 0.16 %ID/g tissue | Biodistribution, radioactivity in Spleen ([2]; 15 min after injection): 0.55 ± 0.02 %ID/g tissue | Biodistribution, radioactivity in Blood ([2]; 30 min after injection): 0.50 ± 0.01 %ID/g tissue | Biodistribution, radioactivity in Brain ([2]; 30 min after injection): 0.30 ± 0.02 %ID/g tissue | Biodistribution, radioactivity in Heart ([2]; 30 min after injection): 0.49 ± 0.01 %ID/g tissue | Biodistribution, radioactivity in Intestine ([2]; 30 min after injection): 0.51 ± 0.00 %ID/g tissue | Biodistribution, radioactivity in Kidney ([2]; 30 min after injection): 0.86 ± 0.03 %ID/g tissue | Biodistribution, radioactivity in Liver ([2]; 30 min after injection): 0.55 ± 0.01 %ID/g tissue | Biodistribution, radioactivity in Lung ([2]; 30 min after injection): 0.45 ± 0.01 %ID/g tissue | Biodistribution, radioactivity in Muscle ([2]; 30 min after injection): 0.45 ± 0.01 %ID/g tissue | Biodistribution, radioactivity in Pancreas ([2]; 30 min after injection): 2.70 ± 0.17 %ID/g tissue | Biodistribution, radioactivity in Spleen ([2]; 30 min after injection): 0.51 ± 0.01 %ID/g tissue | Biodistribution, radioactivity in Blood ([2]; 60 min after injection): 0.50 ± 0.02 %ID/g tissue | Biodistribution, radioactivity in Brain ([2]; 60 min after injection): 0.31 ± 0.01 %ID/g tissue | Biodistribution, radioactivity in Heart ([2]; 60 min after injection): 0.47 ± 0.02 %ID/g tissue | Biodistribution, radioactivity in Intestine ([2]; 60 min after injection): 0.46 ± 0.02 %ID/g tissue | Biodistribution, radioactivity in Kidney ([2]; 60 min after injection): 0.74 ± 0.04 %ID/g tissue | Biodistribution, radioactivity in Liver ([2]; 60 min after injection): 0.54 ± 0.02 %ID/g tissue | Biodistribution, radioactivity in Lung ([2]; 60 min after injection): 0.43 ± 0.02 %ID/g tissue | Biodistribution, radioactivity in Muscle ([2]; 60 min after injection): 0.45 ± 0.02 %ID/g tissue | Biodistribution, radioactivity in Pancreas ([2]; 60 min after injection): 2.27 ± 0.05 %ID/g tissue | Biodistribution, radioactivity in Spleen ([2]; 60 min after injection): 0.48 ± 0.01 %ID/g tissue | Radioactivity in the brain, pancreas, and blood associated with L- and D-1MTrp ([5]; 15 and 60 min after injection): more than 94% | Ex vivo metabolite analysis, % of tailored L- and D-1MTrp entity in Brain ([5]; 15 min after injection): 98.38 ± 0.34% | Ex vivo metabolite analysis, % of tailored L- and D-1MTrp entity in Pancreas ([5]; 15 min after injection): 94.73 ± 1.64% | Ex vivo metabolite analysis, % of tailored L- and D-1MTrp entity in Plasma ([5]; 15 min after injection): 97.67 ± 0.18% | Ex vivo metabolite analysis, % of tailored L- and D-1MTrp entity in Brain ([5]; 60 min after injection): 98.93 ± 0.51% | Ex vivo metabolite analysis, % of tailored L- and D-1MTrp entity in Pancreas ([5]; 60 min after injection): 95.88 ± 0.64% | Ex vivo metabolite analysis, % of tailored L- and D-1MTrp entity in Plasma ([5]; 60 min after injection): 98.44 ± 0.13%

From publication PMC4639751, “Development of 1-N-^11C-Methyl-L- and -D-Tryptophan for pharmacokinetic imaging of the immune checkpoint inhibitor 1-Methyl-Tryptophan” (Scientific Reports, 2015)
